Data published in patent US20070275382A1, “Biomarkers for the Efficacy of Somatostatin Analogue Treatment” (priority 2003, published 2007).
*1 amine or outer side, *2 acyl side, *3 side chain or, on linkers, in order; H or OH if unused. Where a SMILES comes first, the peptide text is derived from it. Side-chain parts run from the residue outwards. [ ]: non-standard residue; d: D form. The star is where a group is joined. Ethylenediamine = C(CN[*:2])N[*:1]; Hyp = O=C(O)[CH]1C[CH](O)CN1; Phg = N[CH](C(=O)O)c1ccccc1; CO = O=C([*:1])[*:2]; Bn = c1ccc(C*)cc1

How the values were obtained:
[1] = system: Spleen; test: Microarray gene expression profiling (HG-U95A), spleen; type: in vivo, cynomolgus monkeys
Protocol: Origin of tissue and processing. Male and female cynomolgus monkeys received subcutaneously pasireotide (100 μg/animal/day) or the vehicle for 14 days. On day 15, all animals were sacrificed and tissues for RNA extraction were immediately snap-frozen and kept at −80° C. until processing.
RNA expression profiling was conducted by means of the HG-U95A gene expression probe array (Affymetrix; Santa Clara, Calif. USA), containing more than 12,600 probe sets interrogating primarily full-length human genes and also some control probe sets. The experiment was conducted according to the recommendations of the manufacturer. Briefly, total RNA was obtained by acid guanidinium thiocyanate-phenol-chloroform extraction (Trizol®, Invitrogen Life Technologies, San Diego, Calif. USA) from each frozen tissue section. The total RNA was then purified on an affinity resin (Rneasy®, Qiagen) and quantified. Double stranded cDNA was synthesized with a starting amount of approximately 5 μg full-length total RNA using the Superscript® Choice System (Invitrogen Life Technologies, Carlsbad, Calif. USA) in the presence of a T7-(dT)24 DNA oligonucleotide primer. Following synthesis, the cDNA was purified by phenol/chloroform/isoamyl alcohol extraction and ethanol precipitation. The purified cDNA was then transcribed in vitro using the BioArray® High Yield RNA Transcript Labeling Kit (ENZO, Farmingdale, N.Y. USA) in the presence of biotinylated ribonucleotides form biotin labelled cRNA. The labelled cRNA was then purified on an affinity resin (Rneasy®, Qiagen), quantified and fragmented. An amount of approximately 10 μg labelled cRNA was hybridized for 16 hours at 45° C. to an expression probe array. The array was then washed and stained twice with streptavidin-phycoerythrin (Molecular Probes,) using the GeneChip® Fluidics Workstation 400 (Affymetrix, Santa Clara, Calif. USA). The array was then scanned twice using a confocal laser scanner (GeneArray® Scanner, Agilent, Palo Alto, Calif. USA) resulting in one scanned image. This resulting “.dat-file” was processed using the MAS4 program (Affymetrix) into a “.cel-file”. The “.cel file” was captured and loaded into the Affymetrix GeneChip® Laboratory Information Management System (LIMS). The LIMS database is connected to a UNIX Sun Solaris server through a network filing system that allows for the average intensities for all probes cells (CEL file) to be downloaded into an Oracle database (NPGN). Raw data was converted to expression levels using a “target intensity” of 150. The data were evaluated for quality control and loaded in the GeneSpring® software 4.2.4 (Silicon Genetics, Calif. USA) for analysis.
On the human Affymetrix HGU95Av2 chip, probe sets for individual genes contain 20 oligonucleotide pairs, each composed of a “perfect match” 25-mer and a “mismatch” 25-mer differing from the “perfect” match oligonucleotide at a single base. After probe labelling, hybridization, and laser scanning, the expression level was estimated by averaging the differences in signal intensity measured by oligonucleotide pairs of a given probe (AvgDiff value). The fold changes and directions were calculated for selected genes, from the differences of the AvgDiff values between controls and treated.
To identify genes that were impacted by pasireotide, the dataset was initially filtered to exclude in a first wave of analysis, genes whose values were systematically in the lower expression ranges where the experimental noise is high (at least 80 in a number of experiments corresponding to the smallest number of replicas of any experimental point). In a second round of selection a threshold p-value of 0.05 (based on a t-test) identified differences between treated and control based on a two component error model (Global Error Model) and, whenever possible, with a stepdown correction for multi-hypothesis testing (Benjamini and Hochberg false discovery rate). […]

[2] = molecular target: T1, hSST-4 (Homo sapiens, UniProt P31391); conditions: background statement; cited from earlier work
T1 construct: expressed in transfected cells; host or cells: CHO cells

[3] = ↑ increase, treated vs controls
[4] = ↓ decrease, treated vs controls

T1 sequence (P31391 whole entry): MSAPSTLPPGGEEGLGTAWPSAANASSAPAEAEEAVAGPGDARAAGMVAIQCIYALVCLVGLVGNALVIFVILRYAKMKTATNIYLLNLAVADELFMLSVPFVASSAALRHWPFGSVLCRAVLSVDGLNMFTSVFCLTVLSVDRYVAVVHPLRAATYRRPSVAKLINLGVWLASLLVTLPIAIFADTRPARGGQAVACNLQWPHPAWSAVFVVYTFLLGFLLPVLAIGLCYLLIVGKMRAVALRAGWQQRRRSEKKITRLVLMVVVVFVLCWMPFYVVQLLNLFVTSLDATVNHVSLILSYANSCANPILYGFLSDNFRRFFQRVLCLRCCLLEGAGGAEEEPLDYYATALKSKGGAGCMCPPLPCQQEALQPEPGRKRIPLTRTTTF

## NCCCCC1NC(=O)C(Cc2c[nH]c3ccccc23)NC(=O)C(c2ccccc2)NC(=O)C2CC(OC(=O)NCCN)CN2C(=O)C(Cc2ccccc2)NC(=O)C(Cc2ccc(OCc3ccccc3)cc2)NC1=O (stereo not drawn) [Pasireotide, cyclo[4-(NH2—C2H4—NH—CO—O)Pro-Phg-DTrp-Lys-Tyr(4-Bzl)-Phe]] (cyclo(F[Hyp]([CO-Ethylenediamine])[Phg]WKY(Bn)); configuration not given here)
[1]; 0.1 mg/animal/14day
  IGF-1 expression level, AvgDiff (range): 85 (52 to 125)
  IGFBP6 expression level, AvgDiff (range): 1,043 (853 to 1,155)
  SSTR2 expression level, AvgDiff (range): 93 (87 to 95)
[1]; [3]
  ATPase, Na+/K+ transporting, β 1 polypeptide RNA expression fold change: polypeptide ↑ x2.5
  Arginine vasopressin receptor 1B RNA expression fold change: receptor 1B ↑ x2
  Bcl-2 binding component 3 RNA expression fold change: ↑ x2.5
  Ca++ channel, voltage-dependent, α 2/δ subunit 1 RNA expression fold change: subunit 1 ↑ x2
  Ca++ channel, voltage-dependent, α 2/δ subunit 2 RNA expression fold change: ↑ x1.5
  Calcium/calmodulin-dependent protein kinase (CaM kinase) II β RNA expression fold change: II β ↑ x2
  Calmodulin 1 (phosphorylase kinase, δ) RNA expression fold change: kinase, δ) ↑ x2
  Calmodulin 2 (phosphorylase kinase, δ) RNA expression fold change: kinase, δ) ↑ x1.5
  Caspase 8, apoptosis-related cysteine protease RNA expression fold change: ↑ x2.5
  Cdk 2 RNA expression fold change: Cdk 2 ↑ x1.5
  Cdk 5, regulatory subunit 1 (p35) RNA expression fold change: ↑ x2
  Cdk 6 RNA expression fold change: Cdk 6 ↑ x3
  Cyclin D2 RNA expression fold change: Cyclin D2 ↑ x1.5
  Death-associated protein RNA expression fold change: ↑ x1.5
  Follistatin-like 1 RNA expression fold change: ↑ x1.5
  Gastric inhibitory polypeptide receptor RNA expression fold change: receptor ↑ x2
  HGF activator inhibitor precursor RNA expression fold change: ↑ x1.5
  IFN regulatory factor 2 RNA expression fold change: factor 2 ↑ x3.5
  IFN-inducible RNA-dependent protein kinase RNA expression fold change: ↑ x2.5
  IFNγ receptor 2 (IFNγ transducer 1) RNA expression fold change: ↑ x1.5
  IFNγ responsive transcript RNA expression fold change: ↑ x2
  IGF-1 RNA expression fold change: IGF-1 ↑ x1.5
  IGFBP6 RNA expression fold change: IGFBP6 ↑ x2.5
  IL 1 receptor-like 1 RNA expression fold change: ↑ x2
  IL-8 receptor type B RNA expression fold change: ↑ x1.5
  IP-4-phosphatase, type 1, isoform b RNA expression fold change: ↑ x2
  K+ large conductance Ca++-activated channel, subfamily M, β member 1 RNA expression fold change: ↑ x2.5
  LTb4 (chemokine receptor-like 1) RNA expression fold change: receptor-like 1) ↑ x3
  PDGF, α polypeptide RNA expression fold change: polypeptide ↑ x2.5
  PDGFR, α polypeptide RNA expression fold change: polypeptide ↑ x1.5
  PI-3-kinase, class 2, β polypeptide RNA expression fold change: ↑ x1.5
  PI-3-kinase, class 3 RNA expression fold change: class 3 ↑ x2
  PKC, α binding protein RNA expression fold change: protein ↑ x2
  PLA2 RNA expression fold change: PLA2 ↑ x2
  Phosphatidylinositol glycan, class B RNA expression fold change: ↑ x1.5
  Programmed cell death 10 RNA expression fold change: death 10 ↑ x1.5
  Putative chemokine receptor; GTP-binding protein RNA expression fold change: binding protein ↑ x2.5
  Rb binding protein RNA expression fold change: protein ↑ x2
  Rb-binding protein 8 RNA expression fold change: protein 8 ↑ x1.5
  S-phase kinase-associated protein 1A (p19A) RNA expression fold change: 1A (p19A) ↑ x2
  SSTR2 RNA expression fold change: SSTR2 ↑ x2
  Solute carrier family 9 (Na+/H+ exchanger) isoform 3 regulatory factor 1 RNA expression fold change: ↑ x10.5
  TGF induced protein RNA expression fold change: protein ↑ x1.5
  TNF (cachectin) RNA expression fold change: ↑ x2
  TNFR superfamily, member 12 RNA expression fold change: member 12 ↑ x1.5
  Tumour protein p53-binding protein RNA expression fold change: protein ↑ x1.5
  VEGF RNA expression fold change: VEGF ↑ x1.5
  Vasodilatator-stimulated phosphoprotein RNA expression fold change: phosphoprotein ↑ x2
  β adrenergic receptor kinase 1 RNA expression fold change: kinase 1 ↑ x3
[1]; ↑ increase, treated vs controls, second listing, without (p19A)
  S-phase kinase-associated protein 1A RNA expression fold change: 1A ↑ x2
[1]; [4]
  Adrenergic, α-2C-, receptor RNA expression fold change: ↓ x2
  Cyclin I RNA expression fold change: Cyclin I ↓ x1.5
  Dopamine receptor D4 RNA expression fold change: receptor D4 ↓ x2
  EGF (β-urogastrone) RNA expression fold change: urogastrone) ↓ x2
  K+ voltage-gated channel, shaker-related subfamily, member 3 RNA expression fold change: member 3 ↓ x3
  Nuclear factor of activated T-cells, cytoplasmic, calcineurin-dependent 1 RNA expression fold change: dependent 1 ↓ x5
  PI-3-kinase, catalytic, α polypeptide RNA expression fold change: polypeptide ↓ x2.5
  PTHR 1 RNA expression fold change: PTHR 1 ↓ x2.5
  TGFβ receptor III (betaglycan, 300 kD) RNA expression fold change: 300 kD) ↓ x1.5
[2]
  binding to SSTR4: binds to all somatostatin receptors except SSTR4
